Measurements: US20260201008A1, “SECRETIN-DERIVED GLP1R SELECTIVE AGONISTS” (GUBRA A/S, priority 2023, published 2026)
Like-named read-outs stand apart in the source and are kept apart here. Numbered stars: 1 amine (or outer) side, 2 acyl side, 3 side chain; on linkers, the order of the positions; unused ones are H or OH. Square brackets hold non-standard residues; d marks the D form. Side chains are listed from the residue outwards. Peptide text beside a SMILES is read from it. * marks the point of attachment. C20 diacid = O=C(O)CCCCCCCCCCCCCCCCCCC(=O)*; γGlu = O=C(O)[C@H](CCC(=O)[*:2])N[*:1]; AEEA = NCCOCCOCC(=O)O; Aib = CC(C)(N)C(=O)O

Experiments:
[1] = Turbidity of crude library peptides (absorbance at 600 nm); assay type: physicochemical; settings: Physical stability of peptides
Outline: (§1)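 Crude peptides at 267 μM in 50 mM sodium acetate pH 4.0 or 50 mM sodium phosphate pH 7.0, pre-incubated 1-2 h at room temperature, then 4 μM final ThT added. Turbidity read first as A600. ThT fluorescence (ex 450/em 480 nm) read every 10 min for 72 h at 40° C, with 5 min shaking before each read; fibril formation = average emission.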

SCTR = SCTR (Homo sapiens, UniProt P47872); test: hSCTR potency, cAMP accumulation in CHO-K1 cells stably overexpressing hSCTR; assay type: cell-based; parameters: alternatively Euroscreen ES-712-AF; FAST-0161L; host or cells: CHO-K1; settings: cAMP accumulation
Outline: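 Cells plated at 2000/well in DPBS with 0.05% casein and 0.5 mM IBMX, stimulated 30 min at room temperature with graded compound doses; human secretin as positive control. cAMP read by TR-FRET after 1 h. Purified peptides tested at 11 3-fold dilutions, n=2; EC50 by variable-slope sigmoid fit.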

[2] = Fibril formation of crude library peptides (Thioflavin T); assay type: physicochemical; parameters: key: average ThT fluorescence emission at 480 nm (ex 450 nm), raw units; settings: Physical stability of peptides
Outline: as §1

GLP1R = GLP1R (Homo sapiens, UniProt P43220); test: hGLP1R potency, cAMP accumulation in CHO-K1 cells stably overexpressing hGLP1R; assay type: cell-based; parameters: host or cells: CHO-K1; settings: for EC50: cAMP accumulation; for SCTR EC50/GLP1R EC50 ratio: cAMP accumulation in CHO-K1 cells
Outline: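 CHO-K1 cells stably expressing hGLP1R (2000/well) in DPBS with 0.05% casein and 0.5 mM IBMX were stimulated 30 min at room temperature with graded compound doses; human GLP-1(7-36) served as positive control. cAMP was read by HTRF after 1 h; EC50 came from variable-slope sigmoid fits (purified peptides: 11-point 3-fold, n=2).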

[3] = CHO-K1 cells overexpressing hSCTR, read-out: hSCTR pEC50 (converted)
[4] = CHO-K1 cells overexpressing hGLP1R, read-out: hGLP1R pEC50 (converted)
[5] = selectivity for hGLP1R over hSCTR

Sequence of SCTR (P47872 23-440): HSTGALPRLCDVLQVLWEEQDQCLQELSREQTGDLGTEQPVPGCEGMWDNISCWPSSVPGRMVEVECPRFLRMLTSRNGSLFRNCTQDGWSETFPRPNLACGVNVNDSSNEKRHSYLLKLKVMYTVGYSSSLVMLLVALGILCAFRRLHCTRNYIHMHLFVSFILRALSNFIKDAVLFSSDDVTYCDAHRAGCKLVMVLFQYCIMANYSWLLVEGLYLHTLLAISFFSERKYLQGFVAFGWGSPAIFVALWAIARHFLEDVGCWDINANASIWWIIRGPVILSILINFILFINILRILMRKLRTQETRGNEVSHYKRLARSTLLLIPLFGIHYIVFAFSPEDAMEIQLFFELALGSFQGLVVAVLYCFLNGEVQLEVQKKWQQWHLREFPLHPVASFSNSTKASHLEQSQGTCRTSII
Sequence of GLP1R (P43220 24-463): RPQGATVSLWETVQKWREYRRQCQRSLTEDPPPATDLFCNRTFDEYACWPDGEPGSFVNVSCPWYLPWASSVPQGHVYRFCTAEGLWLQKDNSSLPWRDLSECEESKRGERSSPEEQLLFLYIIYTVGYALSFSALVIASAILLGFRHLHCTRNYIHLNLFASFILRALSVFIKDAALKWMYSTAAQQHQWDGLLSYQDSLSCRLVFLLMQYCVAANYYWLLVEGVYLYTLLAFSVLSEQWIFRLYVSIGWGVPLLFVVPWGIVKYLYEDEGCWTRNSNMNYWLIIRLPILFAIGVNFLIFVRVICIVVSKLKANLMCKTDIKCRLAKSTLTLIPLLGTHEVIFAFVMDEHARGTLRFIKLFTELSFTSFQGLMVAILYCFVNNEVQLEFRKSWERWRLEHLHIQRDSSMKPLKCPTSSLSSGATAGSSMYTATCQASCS

Structure (SMILES) | Turbidity (pH 7) [1] | EC50 (SCTR; CHO-K1 cells stably overexpressing hSCTR, read-out: hSCTR potency (pEC50) (converted)) [nM] | Fibril formation [2] | EC50 (GLP1R; CHO-K1 cells stably overexpressing hGLP1R, read-out: hGLP1R potency (pEC50) (converted)) [nM] | SCTR EC50/GLP1R EC50 ratio (GLP1R; selectivity ratio, hSCTR vs hGLP1R) | EC50 (SCTR; [3]) [nM] | EC50 (GLP1R; [4]) [nM] | SCTR EC50/GLP1R EC50 ratio (GLP1R; [5]) | EC50 (SCTR; CHO-K1 cells overexpressing hSCTR, read-out: pEC50 hSCTR (converted)) [nM] | Selectivity (GLP1R; SCTR EC50/GLP1R EC50 ratio) | EC50 (GLP1R; CHO-K1 cells overexpressing hGLP1R, read-out: pEC50 hGLPR1 (converted)) [nM]
CC[C@H](C)[C@H](NC(=O)[C@H](Cc1ccccc1)NC(=O)[C@H](CCCNC(=N)N)NC(=O)[C@H](CCC(N)=O)NC(=O)[C@H](CC(C)C)NC(=O)[C@H](C)NC(=O)[C@H](C)NC(=O)CNC(=O)[C@H](CCC(=O)O)NC(=O)[C@H](CC(C)C)NC(=O)[C@H](CC(C)C)NC(=O)[C@H](Cc1c[nH]c2ccccc12)NC(=O)[C@H](CO)NC(=O)[C@H](Cc1ccc(O)cc1)NC(=O)[C@H](CC(=O)O)NC(=O)[C@H](CO)NC(=O)[C@@H](NC(=O)[C@H](Cc1ccccc1)NC(=O)[C@@H](NC(=O)CNC(=O)[C@H](CCC(=O)O)NC(=O)C(C)(C)NC(=O)[C@@H](N)Cc1c[nH]cn1)[C@@H](C)O)[C@@H](C)O)C(=O)N[C@@H](CCC(N)=O)C(=O)N[C@@H](Cc1c[nH]c2ccccc12)C(=O)N[C@@H](CC(C)C)C(=O)N[C@H](C(N)=O)C(C)C [compound 200] (H-H[Aib]EGTFTSDYSWLLEGAALQRFIQWLV-NH2) | 0.92 | 7.94 | 141730 | 0.02 | 353 | – | – | – | – | – | –
CC(C)C[C@H](NC(=O)[C@H](Cc1ccccc1)NC(=O)[C@H](CCCNC(=N)N)NC(=O)[C@H](CCC(N)=O)NC(=O)[C@H](C)NC(=O)[C@H](C)NC(=O)[C@H](C)NC(=O)[C@H](CCC(=O)O)NC(=O)[C@H](CCC(=O)O)NC(=O)[C@H](CCCCNC(=O)COCCOCCNC(=O)COCCOCCNC(=O)CC[C@H](NC(=O)CCCCCCCCCCCCCCCCCCC(=O)O)C(=O)O)NC(=O)[C@H](CC(C)C)NC(=O)[C@H](CCC(=O)O)NC(=O)[C@H](CO)NC(=O)[C@@H](NC(=O)[C@H](CC(=O)O)NC(=O)[C@H](CO)NC(=O)[C@@H](NC(=O)[C@H](Cc1ccccc1)NC(=O)[C@@H](NC(=O)CNC(=O)[C@H](CCC(=O)O)NC(=O)C(C)(C)NC(=O)[C@@H](N)Cc1c[nH]cn1)[C@@H](C)O)[C@@H](C)O)C(C)C)C(=O)N[C@@H](CCC(=O)O)C(=O)N[C@@H](Cc1c[nH]cn1)C(=O)N[C@@H](CC(C)C)C(=O)N[C@H](C(N)=O)C(C)C [compound 98] (H-H[Aib]EGTFTSDVSELK([AEEA-AEEA-γGlu-C20 diacid])EEAAAQRFLEHLV-NH2) | 0.09 | – | 10655 | – | – | 1260 | 0.0251 | 48854 | – | – | –
CC(C)C[C@H](NC(=O)[C@H](Cc1ccccc1)NC(=O)[C@H](CCCNC(=N)N)NC(=O)[C@H](CCC(N)=O)NC(=O)[C@H](CC(C)C)NC(=O)C(C)(C)NC(=O)[C@H](C)NC(=O)[C@H](CCC(=O)O)NC(=O)[C@H](CCC(=O)O)NC(=O)[C@H](CCCCNC(=O)COCCOCCNC(=O)COCCOCCNC(=O)CC[C@H](NC(=O)CCCCCCCCCCCCCCCCCCC(=O)O)C(=O)O)NC(=O)[C@H](CC(C)C)NC(=O)[C@H](Cc1c[nH]cn1)NC(=O)[C@H](CO)NC(=O)[C@@H](NC(=O)[C@H](CC(=O)O)NC(=O)[C@H](CO)NC(=O)[C@@H](NC(=O)[C@H](Cc1ccccc1)NC(=O)[C@@H](NC(=O)CNC(=O)[C@H](CCC(=O)O)NC(=O)C(C)(C)NC(=O)[C@@H](N)Cc1c[nH]cn1)[C@@H](C)O)[C@@H](C)O)C(C)C)C(=O)N[C@@H](CCC(=O)O)C(=O)N[C@@H](Cc1c[nH]cn1)C(=O)N[C@@H](CC(C)C)C(=O)N[C@H](C(N)=O)C(C)C [compound 145] (H-H[Aib]EGTFTSDVSHLK([AEEA-AEEA-γGlu-C20 diacid])EEA[Aib]LQRFLEHLV-NH2) | 0.08 | – | 2891 | – | – | 63.1 | 0.00794 | 8838 | – | – | –
CC(C)C[C@H](NC(=O)[C@H](Cc1ccccc1)NC(=O)[C@H](CCCNC(=N)N)NC(=O)[C@H](CCC(N)=O)NC(=O)[C@@H](NC(=O)C(C)(C)NC(=O)[C@H](C)NC(=O)[C@H](CCC(=O)O)NC(=O)[C@H](CCC(=O)O)NC(=O)[C@H](CCCCNC(=O)COCCOCCNC(=O)COCCOCCNC(=O)CC[C@H](NC(=O)CCCCCCCCCCCCCCCCCCC(=O)O)C(=O)O)NC(=O)[C@H](CC(C)C)NC(=O)[C@H](Cc1ccc(O)cc1)NC(=O)[C@H](CO)NC(=O)[C@@H](NC(=O)[C@H](CC(=O)O)NC(=O)[C@H](CO)NC(=O)[C@@H](NC(=O)[C@H](Cc1ccccc1)NC(=O)[C@@H](NC(=O)CNC(=O)[C@H](CCC(=O)O)NC(=O)C(C)(C)NC(=O)[C@@H](N)Cc1c[nH]cn1)[C@@H](C)O)[C@@H](C)O)C(C)C)C(C)C)C(=O)N[C@@H](CCC(=O)O)C(=O)N[C@@H](Cc1c[nH]cn1)C(=O)N[C@@H](CC(C)C)C(=O)N[C@H](C(N)=O)C(C)C [compound 161] (H-H[Aib]EGTFTSDVSYLK([AEEA-AEEA-γGlu-C20 diacid])EEA[Aib]VQRFLEHLV-NH2) | 0.08 | – | 3973 | – | – | 158 | 0.00398 | 42442 | – | – | –
CC(C)C[C@H](NC(=O)[C@H](Cc1ccccc1)NC(=O)[C@H](CCCNC(=N)N)NC(=O)[C@H](CCC(N)=O)NC(=O)C(C)(C)NC(=O)[C@H](C)NC(=O)[C@H](C)NC(=O)[C@H](CCC(=O)O)NC(=O)[C@H](CCC(=O)O)NC(=O)[C@H](CCCCNC(=O)COCCOCCNC(=O)COCCOCCNC(=O)CC[C@H](NC(=O)CCCCCCCCCCCCCCCCCCC(=O)O)C(=O)O)NC(=O)[C@H](CC(C)C)NC(=O)[C@@H](NC(=O)[C@H](CO)NC(=O)[C@@H](NC(=O)[C@H](CC(=O)O)NC(=O)[C@H](CO)NC(=O)[C@@H](NC(=O)[C@H](Cc1ccccc1)NC(=O)[C@@H](NC(=O)CNC(=O)[C@H](CCC(=O)O)NC(=O)C(C)(C)NC(=O)[C@@H](N)Cc1c[nH]cn1)[C@@H](C)O)[C@@H](C)O)C(C)C)[C@@H](C)O)C(=O)N[C@@H](CCC(=O)O)C(=O)N[C@@H](Cc1c[nH]cn1)C(=O)N[C@@H](CC(C)C)C(=O)N[C@H](C(N)=O)C(C)C [compound 77] (H-H[Aib]EGTFTSDVSTLK([AEEA-AEEA-γGlu-C20 diacid])EEAA[Aib]QRFLEHLV-NH2) | 0.08 | – | 11936 | – | – | – | – | – | 1580 | 74783 | 0.02
CC(C)C[C@H](NC(=O)[C@H](Cc1ccccc1)NC(=O)[C@H](CCCNC(=N)N)NC(=O)[C@H](CCC(N)=O)NC(=O)[C@H](CC(C)C)NC(=O)C(C)(C)NC(=O)[C@H](C)NC(=O)[C@H](CCC(=O)O)NC(=O)[C@H](CCC(=O)O)NC(=O)[C@H](CCCCNC(=O)COCCOCCNC(=O)COCCOCCNC(=O)CC[C@H](NC(=O)CCCCCCCCCCCCCCCCCCC(=O)O)C(=O)O)NC(=O)[C@H](CC(C)C)NC(=O)[C@H](Cc1ccc(O)cc1)NC(=O)[C@H](CO)NC(=O)[C@@H](NC(=O)[C@H](CC(=O)O)NC(=O)[C@H](CO)NC(=O)[C@@H](NC(=O)[C@H](Cc1ccccc1)NC(=O)[C@@H](NC(=O)CNC(=O)[C@H](CCC(=O)O)NC(=O)C(C)(C)NC(=O)[C@@H](N)Cc1c[nH]cn1)[C@@H](C)O)[C@@H](C)O)C(C)C)C(=O)N[C@@H](CCC(=O)O)C(=O)N[C@@H](CCCCN)C(=O)N[C@@H](CC(C)C)C(=O)N[C@H](C(N)=O)C(C)C [compound 147] (H-H[Aib]EGTFTSDVSYLK([AEEA-AEEA-γGlu-C20 diacid])EEA[Aib]LQRFLEKLV-NH2) | 0.08 | – | 4336 | – | – | 63.1 | 0.00501 | 12361 | – | – | –
